Test results reported in patent publication US20030060498A1, “5-arylsulfonyl indoles useful for treating disease” (priority 2001, published 2003).
Structures can show the parent of a compound that is named as a salt. Where two headings read alike, the source gives them in different places.

Experiments:
[1] = target: T1, cloned human 5-HT6 receptor (Homo sapiens, UniProt P50406); experiment: 5-HT6 receptor binding assay ([3H]-LSD radioligand, SPA beads)
T1 construct: host or cells: HeLa cells (G-418 selection); membrane preparation
T1 sequence (P50406 whole entry): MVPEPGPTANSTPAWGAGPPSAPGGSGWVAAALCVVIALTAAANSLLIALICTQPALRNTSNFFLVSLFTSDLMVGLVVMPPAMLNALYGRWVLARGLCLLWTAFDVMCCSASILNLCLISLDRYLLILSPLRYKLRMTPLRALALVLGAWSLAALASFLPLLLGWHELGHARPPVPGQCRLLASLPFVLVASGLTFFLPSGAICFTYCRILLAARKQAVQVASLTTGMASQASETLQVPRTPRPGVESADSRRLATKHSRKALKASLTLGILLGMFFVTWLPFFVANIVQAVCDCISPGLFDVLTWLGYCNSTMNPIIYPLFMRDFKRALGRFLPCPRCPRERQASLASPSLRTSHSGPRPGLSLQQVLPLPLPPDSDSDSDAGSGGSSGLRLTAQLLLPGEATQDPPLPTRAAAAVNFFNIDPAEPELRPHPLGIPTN
Description: 5-HT6 Receport Binding Assay
Growth of Cells and Membrane Preparation:
Hela cells containing the cloned human 5-HT6 receptor were acquired from Dr. David R. Sibley's laboratory in National Institute of Health (see Sibley, D. R., J. Neurochemistry, 66, 47-56, 1996). Cells were grown in high glucose Dulbecco's modified Eagle's medium, supplemented with L-glutamine, 0.5% sodium pyruvate, 0.3% penicillin-streptomycin, 0.025% G-418 and 5% Gibco fetal bovine serum and then were harvested, when confluent, in cold phosphate buffered saline.
Harvested intact cells were washed once in cold phosphate-buffered saline. The cells were pelleted and resuspended in 100 ml of cold 50 mM Tris, 5 mM EDTA and 5 mM EGTA, pH 7.4. Homogenization was with a Vir Tishear generator, 4 cycles for 30 seconds each at setting 50. The homogenized cells were centrifuged at […] for 10 minutes and the supernatant was removed. The pellet was resuspended in 100 ml of the above buffer and rehomogenized for 2 cycles. The rehomogenized cells were then centrifuged at […] for 10 minutes and the supernatant was removed. The combined supernatant (200ml) was centrifuged at 23,000 RPM (80,000×g) for 1 hour in a Beckman Rotor (42.1 Ti). The membrane pellet was resuspended in […] of assay buffer containing HEPES 20 mM, MgCl2 10 mM, NaCl 150 mM, EDTA 1 mM, pH 7.4 and stored frozen in aliqouts at −70° C.
5-HT6 Receptor Binding Assay
The radioligand binding assay used [^3H]-lysergic acid diethylamide (LSD). The assay was carried out in Wallac 96-well sample plates by the addition of 11 μl of the test sample at the appropriate dilution (the assay employed 11 serial concentrations of samples run in duplicate), 11 μl of radioligand, and 178 μl of a washed mixture of WGA-coated SPA beads and membranes in binding buffer. The plates were shaken for about 5 minutes and then incubated at room temperature for 1 hour. The plates were then loaded into counting cassettes and counted in a Wallac MicroBeta Trilux scintillation counter.
Binding Constant (Ki) Determination
Eleven serial dilutions of test compounds were distributed to assay plates using the PE/Cetus Pro/Pette pipetter. These dilutions were, followed by radioligand and the bead-membrane mixture prepared as described above. The specifically bound cpm obtained were fit to a one-site binding model using GraphPad Prism ver. 3.0. Estimated IC50 values were converted to Ki values using the Cheng-Prusoff equation (Cheng, Y. C. et al., Biochem. Pharmacol., 22, 3099-108, 1973).

Row | Structure (SMILES) | Ki ([1]; [3H]-LSD, membranes of Hela cells containing the cloned human 5-HT6 receptor, IC50 converted by Cheng-Prusoff, average, read-out: Ki) [nM] | melting point | Ki [1] [nM]
1 | Cc1[nH]c2ccc(S(=O)(=O)c3ccc(C(F)(F)F)cc3)cc2c1CCN.Cl [Example 12, 2-(2-methyl-5-{[4-(trifluoromethyl)phenyl]sulfonyl}-1H-indol-3-yl)ethanamine Hydrochloride] | 146 | > 275 °C | 
2 | Cc1ccc(S(=O)(=O)c2ccc3c(c2)c(CCN)cn3C)cc1.Cl [Example 7, 2-{1-methyl-5-[(4-methylphenyl)sulfonyl]-1H-indol-3-yl}ethanamine Hydrochloride] |  | 186.3 to 190.2 °C | 3.3
3 | Cc1c(CCN)c2cc(S(=O)(=O)c3ccccc3)ccc2n1C.Cl [Example 4, 2-[1,2-dimethyl-5-(phenylsulfonyl)-1H-indol-3-yl]ethanamine Hydrochloride] |  | 155 to 158.3 °C | 4
4 | CNCCc1c(C)n(C)c2ccc(S(=O)(=O)c3cccc4ccccc34)cc12.Cl |  | > 141 °C (dec.) | 
5 | Cc1[nH]c2ccc(S(=O)(=O)c3cc(F)cc(F)c3)cc2c1CCN.Cl [Example 18, 2-{5-[(3,5-difluorophenyl)sulfonyl]-2-methyl-1H-indol-3-yl}ethanamine Hydrochloride] |  | > 280 °C | 66
6 | Cc1c(CCN)c2cc(S(=O)(=O)c3cc(F)cc(F)c3)ccc2n1C.Cl [Example 19, 2-{5-[(3,5-difluorophenyl)sulfonyl]-1,2-dimethyl-1H-indol-3-yl}ethanamine Hydrochloride] |  | 288.6 to 290.5 °C | 5.6
7 | Cc1c(CCN)c2cc(S(=O)(=O)c3cccc4ccccc34)ccc2n1C.Cl [Example 22, 2-[1,2-dimethyl-5-(1-naphthylsulfonyl)-1H-indol-3-yl]ethanamine Hydrochloride] |  | > 175 °C (dec.) | 3.1
8 | Cl.Cn1cc(CCN)c2cc(S(=O)(=O)c3ccccc3)ccc21 [Example 1, 2-[1-methyl-5-(phenylsulfonyl)-1H-indol-3-yl]ethanamine Hydrochloride] |  | 285.3 to 292 °C | 1.5
9 | Cc1[nH]c2ccc(S(=O)(=O)c3ccccc3)cc2c1CCN.Cl [Example 2, 2-[2-methyl-5-(phenylsulfonyl)-1H-indol-3-yl]ethanamine Hydrochloride] |  | > 280 °C | 38
10 | CNCCc1c(C)n(C)c2ccc(S(=O)(=O)c3ccc(C(F)(F)F)cc3)cc12.Cl [Example 14, 2-(1,2-dimethyl-5-{[4-(trifluoromethyl)phenyl]sulfonyl}-1H-indol-3-yl)-N-methylethanamine Hydrochloride] |  | 189.1 to 193.7 °C | 18
11 | Cc1[nH]c2ccc(S(=O)(=O)c3cccc4ccccc34)cc2c1CCN (as salt: hydrochloride) [Example 21, 2-[2-methyl-5-(1-naphthylsulfonyl)-1H-indol-3-yl]ethanamine Hydrochloride] |  | > 280 °C | 
12 | COc1cccc(S(=O)(=O)c2ccc3[nH]c(C)c(CCN)c3c2)c1.Cl [Example 15, 2-{5-[(3-methoxyphenyl)sulfonyl]-2-methyl-1H-indol-3-yl}ethanamine Hydrochloride] |  | 300 to 302 °C | 209
13 | CNCCc1c(C)n(C)c2ccc(S(=O)(=O)c3ccc(C)cc3)cc12.Cl [Example 11, 2-{1,2-dimethyl-5-[(4-methylphenyl)sulfonyl]-1H-indol-3-yl}-N-methylethanamine Hydrochloride] |  | 259.7 to 262.3 °C | 15
14 | Cc1c(CCN)c2cc(S(=O)(=O)c3ccc(C(F)(F)F)cc3)ccc2n1C.Cl [Example 13, 2-(1,2-dimethyl-5-{[4-(trifluoromethyl)phenyl]sulfonyl}-1H-indol-3-yl)ethanamine Hydrochloride] |  | > 280 °C | 36
15 | Cc1ccc(S(=O)(=O)c2ccc3c(c2)c(CCN)c(C)n3C)cc1.Cl [Example 10, 2-{1,2-dimethyl-5-[(4-methylphenyl)sulfonyl]-1H-indol-3-yl}ethanamine Hydrochloride] |  | 168 to 172 °C | 22
16 | Cc1c(CCN(C)C)c2cc(S(=O)(=O)c3ccccc3)ccc2n1C [Example 6, 2-[1,2-dimethyl-5-(phenylsulfonyl)-1H-indol-3-yl]-N,N-dimethylethanamine] |  | 169.6 to 171.9 °C | 1.8
17 | Cc1ccc(S(=O)(=O)c2ccc3[nH]c(C)c(CCN)c3c2)cc1.Cl [Example 9, 2-{2-methyl-5-[(4-methylphenyl)sulfonyl]-1H-indol-3-yl}ethanamine Hydrochloride] |  | > 275 °C | 308
18 | CNCCc1c(C)n(C)c2ccc(S(=O)(=O)c3cccc(OC)c3)cc12.Cl [Example 17, 2-{5-[(3-methoxyphenyl)sulfonyl]-1,2-dimethyl-1H-indol-3-yl}-N-methylethanamine Hydrochloride] |  | 192.4 to 196 °C | 10
19 | CNCCc1cn(C)c2ccc(S(=O)(=O)c3ccc(C)cc3)cc12.Cl [Example 8, N-methyl-2-{1-methyl-5-[(4-methylphenyl)sulfonyl]-1H-indol-3-yl}ethanamine hydrochloride] |  | 275 to 277.6 °C | 7.6
20 | CNCCc1c(C)n(C)c2ccc(S(=O)(=O)c3ccccc3)cc12.Cl [Example 5, 2-[1,2-dimethyl-5-(phenylsulfonyl)-1H-indol-3-yl]-N-methylethanamine Hydrochloride] |  | 266.8 to 268.2 °C | 9
21 | Cc1[nH]c2ccc(S(=O)(=O)c3cccc4ccccc34)cc2c1CCN [Example 21, 2-[2-methyl-5-(1-naphthylsulfonyl)-1H-indol-3-yl]ethanamine Hydrochloride] |  |  | 0.9
22 | COc1cccc(S(=O)(=O)c2ccc3c(c2)c(CCN)c(C)n3C)c1.Cl [Example 16, 2-{5-[(3-methoxyphenyl)sulfonyl]-1,2-dimethyl-1H-indol-3-yl}ethanamine Hydrochloride] |  | 269.5 to 272.4 °C | 3.4
23 | CNCCc1c(C)n(C)c2ccc(S(=O)(=O)c3cc(F)cc(F)c3)cc12.Cl [Example 20, 2-{5-[(3,5-difluorophenyl)sulfonyl]-1,2-dimethyl-1H-indol-3-yl}-N-methylethanamine Hydrochloride] |  | 253.5 to 257.8 °C | 4.6
24 | CNCCc1c(C)[nH]c2ccc(S(=O)(=O)c3ccccc3)cc12 [Example 3, N-methyl-2-[2-methyl-5-(phenylsulfonyl)-1H-indol-3-yl]ethanamine] |  | 164.6 to 166 °C | 37
